Where “and” joins values, the source holds several entries; their conditions need not be identical. Equal entries are not always repeated.
Experiments:
T2R38 = molecular target: T1, T2R38 (Homo sapiens, UniProt P59533, A49P/I296V); test: Single cell calcium imaging, Peakrapid cells (Gα16gustducin44) transiently transfected with T2R38; assay type: cell-based
T1 construct: leader: first 45 amino acids of rat somatostatin receptor subtype 3 (SSTR3) (N); expressed in transfected cells; host or cells: Peakrapid cells (HEK293 derivative, ATCC CRL-2828) stably expressing Galpha16gustducin44, co-transfected with human RTP4
T1 sequence (P59533 1-333 A49P/I296V): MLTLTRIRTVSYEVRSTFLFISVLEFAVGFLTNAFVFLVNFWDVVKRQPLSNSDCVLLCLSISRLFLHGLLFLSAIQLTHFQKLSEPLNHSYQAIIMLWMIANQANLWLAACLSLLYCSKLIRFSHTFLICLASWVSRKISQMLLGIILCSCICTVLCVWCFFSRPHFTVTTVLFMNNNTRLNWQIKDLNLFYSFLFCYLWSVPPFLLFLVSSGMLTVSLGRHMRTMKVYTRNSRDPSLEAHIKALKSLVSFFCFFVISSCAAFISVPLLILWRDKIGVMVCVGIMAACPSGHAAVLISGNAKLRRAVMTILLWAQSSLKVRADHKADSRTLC
In short: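 HEK293-derived Peakrapid cells stably expressing Gα16gustducin44 were transiently co-transfected with T2R38 (PAV or AVI variant) plus RTP4, then loaded with Fluo4 40 h later. Calcium responses were imaged 1/s for 30 s after ligand injection. Responding-cell surface was normalized to 0.1 mM PTC, with EC50 from four-parameter fits; testing began at 100 mM.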

[1] = Solubility in aqueous / buffer solution; assay type: physicochemical
Description: 32 volatile metabolites of pathogens (S1 Fig) were selected from the literature. All compounds were dissolved in buffer solution, except C4HSL dissolved in buffer solution, DMSO or ethanol, C12HSL dissolved in DMSO or ethanol, and Agr D1 thiolactone dissolved in DMSO.

For `CC[C@H](C)[C@H](NC(=O)[C@H](Cc1ccccc1)NC(=O)[C@H](CC(=O)O)NC(=O)[C@H](CCCNC(=N)N)NC(=O)[C@H](Cc1ccccc1)NC(=O)[C@H](Cc1ccccc1)NC(=O)[C@H](CCCCN)NC(=O)[C@H](CO)NC(=O)[C@H](CC(C)C)NC(=O)[C@H](CCCNC(=N)N)NC(=O)[C@H](CCSC)NC(=O)[C@@H](N)CCC(=O)O)C(=O)N[C@@H](CC(C)C)C(=O)N[C@@H](CCC(N)=O)C(=O)N[C@@H](CCCNC(=N)N)C(=O)N[C@@H](CCCCN)C(=O)N[C@@H](CCCCN)C(=O)O` [CSP-1], the “agonist activity on T2R38 (in words)” value (T2R38) was “inactive”, the “response of T2R38 transfected cells (S6_fig raw data)” value (T2R38; CSP-1 0.5 mM, T2R38, individual values of experiments 1-3) was 37.13% and 3.20% and 100.83% and the solubility [1] was “soluble at 0.5 mM in the buffer solution”.
